Source: patent US20100184679A1, “USE OF A COMBINATION OF CART PEPTIDES AS A THERAPEUTIC AGENT” (priority 2007, published 2010)
Where no end group is shown, it is not given here.

How the values were obtained:
HCMV strain AD169 = assay: HCMV plaque formation assay in MRC-5 cells; assay type: cell-based; conditions: for inhibition of HCMV plaque formation as compared to the virus control experiment: 10 micrograms per ml, 7-10 days
From the text: Ganciclovir was used as positive control.

Human A549 cells = assay: Apoptosis induction assay (Annexin-5); assay type: cell-based; conditions: 10 micrograms per ml, 24 hours
Description: Human A549 cells (carcinomic human alveolar basal epithelial cells) were utilized in the experiments employing the Annexin-5 apoptosis assay. […] Test peptides—10 micrograms per ml—were exposed for 24 hours to the A549 cells before they were analyzed for signs of apoptosis.

HUVEC = assay: Endothelial tube formation assay; assay type: cell-based, human; conditions: 10 micrograms per ml, 20 hours
From the text: Positive control was vehicle only.

[1] = test system: hepatitis B virus (HBV) ayw strain; assay: HBV assay in HepG2-2.2.15 cells (TaqMan PCR of secreted HBV DNA); assay type: cell-based; conditions: 10 micrograms per ml, six days, HBV DNA in supernatant
[2] = test system: Primary Human endothelial cells (HUVEC); assay: Endothelial cell migration assay; assay type: cell-based; conditions: 10 micrograms per ml, 22 hours
Description: Thereafter, designated concentration of testing peptides—10 micrograms per ml—was added in duplicate wells.

murine spleen cells = assay: Th1/Th2 cytokine profiling assay (Ovalbumin-restimulated spleen cells, CBA Kit); assay type: cell-based, Balb/c mice; conditions: 10 micrograms per ml, Ovalbumin restimulation, 72 hours
From the text: The Balb/c mice (originated in 1923, it is a popular strain and is used in many different research disciplines. Also classified as an inbred from the production of 20 or more successive brother-sister matings, the Balb/c mouse is albino and small in size) were immunized on Days 1, 15, and 29 with Ovalbumin (Ovalbumin is the main protein found in egg white, commonly used to stimulate an immunological reaction in test animals) in PBS (5 micrograms/injection). On day 50, spleens of the mice were harvested (3 weeks after last boost with Ovalbumin), Cells were cultured (2×10^5/well in triplicate) and incubated with culture medium or test peptides—10 micrograms per ml—for 30 min. Thereafter, additional Ovalbumin was added to the cells at 10 micrograms/ml for in vitro restimulation of the cells. 72 hours later, cell supernatants were harvested and assayed using the Becton Dickinson Mouse Th1/Th2 Cytokine CBA Kit. This kit can be used to measure Interleukin-2 (IL-2), Interleukin-4 (IL-4), Interleukin-5 (IL-5), Interferon-γ (IFN-γ), and Tumor Necrosis Factor-α (TNF-α) protein levels in a single sample. The kit performance has been optimized for analysis of physiologically relevant concentrations (pg/ml levels) of specific cytokine proteins in tissue culture supernatants and serum samples.

HIV-1IIIB = assay: HIV-1 antiviral assay in CEM-SS cells (MTS readout)

| Compound | inhibition of HCMV plaque formation as compared to the virus control experiment (HCMV strain AD169) | induction of apoptosis on human lung cells (Human A549 cells) | inhibition of the tube formation of human endothelial cells (HUVEC) | inhibition of HBV replication as compared to the virus control infection [1] | inhibition of the migration of human endothelial cells [2] | change of the production of IFN-gamma (murine spleen cells) | change of the production of IL-5 (murine spleen cells) | production of TNF-alpha, induced by (murine spleen cells) | antiviral activity of positive control compounds (HIV-1) (HIV-1IIIB) | other results |
| --- | --- | --- | --- | --- | --- | --- | --- | --- | --- | --- |
| Nc1nc(O)c2ncn(COC(CO)CO)c2n1 [Ganciclovir, reference compound] |  |  |  |  |  |  |  |  |  | antiviral activity of positive control compound (HCMV) (HCMV strain AD169; positive control): expected levels of antiviral activity |
| Val-Pro-Ile-Tyr-Glu-Lys-Lys-Tyr-Gly-Gln-Val-Pro-Met-Cys-Asp-Ala-Gly-Glu-Gln-Cys-Ala-Val-Arg-Lys-Gly-Ala-Arg-Ile-Gly-Lys-Leu-Cys-Asp-Cys-Pro-Arg-Gly-Thr-Ser-Cys-Asn-Ser-Phe-Leu-Leu-Lys-Cys-Leu-OH (VPIYEKKYGQVPMCDAGEQCAVRKGARIGKLCDCPRGTSCNSFLLKCL-OH; cysteine pairing not given here) [Peptide 2] | 6.6% | 17.8% | 12% | 45.0% | 22% | did not significantly change | did not significantly change | 27.5% |  | production of IL-2, decreased by (murine spleen cells): 61.5%; production of IL-4, decreased by (murine spleen cells): 100% |
| CC(C)(C)NC(=O)[C@@H]1CN(Cc2cccnc2)CCN1C[C@@H](O)C[C@@H](Cc1ccccc1)C(=O)N[C@H]1c2ccccc2C[C@H]1O [indinavir] |  |  |  |  |  |  |  |  | expected levels of antiviral activity |  |
| Tyr-Gly-Gln-Val-Pro-Met-Cys-Asp-Ala-Gly-Glu-Gln-Cys-Ala-Val-OH (YGQVPMCDAGEQCAV-OH; cysteine pairing not given here) [Peptide 1] | 0.7% | did not show any significant induction | 16% | 33.6% | 15% | did not significantly change | did not significantly change | 95.0% |  | production of IL-2, induced by (murine spleen cells): 147.7%; production of IL-4, induced by (murine spleen cells): 545.4% |
| Cc1cn([C@H]2C[C@H](N=[N+]=[N-])[C@@H](CO)O2)c(=O)[nH]c1=O [AZT] |  |  |  |  |  |  |  |  | expected levels of antiviral activity |  |
